Experimental data from doi:10.1101/757047v1 (biorxiv, 2019).

Legend:
GAK [1] = molecular target: T1, GAK (Homo sapiens, UniProt O14976); test: biochemical
T1 sequence (O14976 12-347 limits assumed): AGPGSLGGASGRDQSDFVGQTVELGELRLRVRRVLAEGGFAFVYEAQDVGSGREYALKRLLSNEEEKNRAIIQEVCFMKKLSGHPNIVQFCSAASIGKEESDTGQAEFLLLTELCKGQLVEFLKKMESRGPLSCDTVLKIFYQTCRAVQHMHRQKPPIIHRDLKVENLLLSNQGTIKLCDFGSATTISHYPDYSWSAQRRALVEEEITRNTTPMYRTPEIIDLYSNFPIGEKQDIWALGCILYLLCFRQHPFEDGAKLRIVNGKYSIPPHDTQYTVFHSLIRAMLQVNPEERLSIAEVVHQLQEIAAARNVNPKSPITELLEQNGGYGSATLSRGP

STK10 [2] = molecular target: T2, STK10 (Homo sapiens, UniProt O94804); test: biochemical
T2 sequence (O94804 36-294 limits assumed): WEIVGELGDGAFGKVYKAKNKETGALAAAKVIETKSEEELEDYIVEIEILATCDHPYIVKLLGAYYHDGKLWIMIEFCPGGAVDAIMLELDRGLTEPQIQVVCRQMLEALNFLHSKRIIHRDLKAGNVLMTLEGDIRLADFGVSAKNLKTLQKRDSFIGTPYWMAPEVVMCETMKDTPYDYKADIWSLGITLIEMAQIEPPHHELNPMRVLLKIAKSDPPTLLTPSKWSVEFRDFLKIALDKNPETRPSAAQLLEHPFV

[3] = molecular target: T3, full length GAK protein N-terminally fused with NanoLuc luciferase (Homo sapiens, UniProt O14976); test: cell-based; set-up: species or system HEK293T
T3 sequence (O14976 2-1311): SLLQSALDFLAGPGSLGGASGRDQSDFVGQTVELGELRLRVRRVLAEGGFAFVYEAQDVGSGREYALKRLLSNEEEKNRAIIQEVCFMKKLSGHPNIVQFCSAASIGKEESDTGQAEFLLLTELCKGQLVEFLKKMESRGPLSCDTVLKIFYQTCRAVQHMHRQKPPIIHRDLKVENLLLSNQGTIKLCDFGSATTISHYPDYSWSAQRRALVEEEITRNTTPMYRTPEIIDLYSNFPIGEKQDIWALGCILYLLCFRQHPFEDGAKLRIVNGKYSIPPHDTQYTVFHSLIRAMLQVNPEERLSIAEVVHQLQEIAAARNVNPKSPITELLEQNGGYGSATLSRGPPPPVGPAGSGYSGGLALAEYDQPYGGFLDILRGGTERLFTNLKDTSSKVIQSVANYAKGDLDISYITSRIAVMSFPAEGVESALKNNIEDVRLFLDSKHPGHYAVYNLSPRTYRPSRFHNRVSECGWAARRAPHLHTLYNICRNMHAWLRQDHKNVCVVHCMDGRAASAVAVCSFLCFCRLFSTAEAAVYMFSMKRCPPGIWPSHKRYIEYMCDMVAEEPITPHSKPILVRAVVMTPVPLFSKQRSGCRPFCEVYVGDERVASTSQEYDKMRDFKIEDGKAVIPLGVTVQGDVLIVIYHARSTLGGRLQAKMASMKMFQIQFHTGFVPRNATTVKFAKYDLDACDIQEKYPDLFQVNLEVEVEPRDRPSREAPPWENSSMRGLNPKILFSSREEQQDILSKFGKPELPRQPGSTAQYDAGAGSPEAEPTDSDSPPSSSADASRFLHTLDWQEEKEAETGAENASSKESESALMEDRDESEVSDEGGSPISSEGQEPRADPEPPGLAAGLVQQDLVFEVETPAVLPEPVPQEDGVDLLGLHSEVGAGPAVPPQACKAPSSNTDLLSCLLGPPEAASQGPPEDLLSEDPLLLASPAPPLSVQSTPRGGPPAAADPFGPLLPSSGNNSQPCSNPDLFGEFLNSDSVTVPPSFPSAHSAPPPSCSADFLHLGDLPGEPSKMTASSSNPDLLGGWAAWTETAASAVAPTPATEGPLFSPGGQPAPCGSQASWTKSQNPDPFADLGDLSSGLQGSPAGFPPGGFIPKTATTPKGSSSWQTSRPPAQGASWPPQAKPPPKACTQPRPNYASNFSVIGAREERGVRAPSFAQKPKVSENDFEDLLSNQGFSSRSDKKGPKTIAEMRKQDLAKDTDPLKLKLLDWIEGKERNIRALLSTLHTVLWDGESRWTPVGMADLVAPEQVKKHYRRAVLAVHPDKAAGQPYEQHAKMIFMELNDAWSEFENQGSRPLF

SLK [4] = molecular target: T4, SLK (Homo sapiens, UniProt Q9H2G2); test: biochemical
T4 sequence (Q9H2G2 34-292): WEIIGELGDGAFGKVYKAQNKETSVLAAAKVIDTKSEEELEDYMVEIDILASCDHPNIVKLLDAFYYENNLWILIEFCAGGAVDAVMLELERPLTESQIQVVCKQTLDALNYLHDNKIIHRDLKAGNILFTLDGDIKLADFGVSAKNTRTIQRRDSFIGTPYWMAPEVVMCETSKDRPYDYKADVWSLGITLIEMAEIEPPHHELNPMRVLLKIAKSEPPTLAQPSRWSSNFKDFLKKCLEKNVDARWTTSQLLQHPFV

GAK [5] = molecular target: T1, GAK; test: biochemical; remark: listed apart in the source
STK10 [6] = molecular target: T2, STK10; test: biochemical; remark: listed apart in the source
SLK [7] = molecular target: T4, SLK; test: biochemical; remark: listed apart in the source
[8] = molecular target: T3, full length GAK protein N-terminally fused with NanoLuc luciferase; test: cell-based; set-up: species or system HEK293T; remark: listed apart in the source
GAK [9] = molecular target: T1, GAK; test: TR-FRET binding displacement assay
SLK [10] = molecular target: T4, SLK; test: TR-FRET binding displacement assay
STK10 [11] = molecular target: T2, STK10; test: TR-FRET binding displacement assay
[12] = molecular target: T3, full length GAK protein N-terminally fused with NanoLuc luciferase; test: nanoBRET cellular target engagement; type: cell-based

Compound | Ki (GAK [1]) | Ki (STK10 [2]) | IC50 [3] | Ki (SLK [4]) | Ki (GAK [5]) | Ki (STK10 [6]) | Ki (SLK [7]) | IC50 [8] | other results
C#Cc1cccc(Nc2ncnc3cc(Br)ccc23)c1 [compound 64, 64] |  |  |  |  | 31 nM | 290 nM | 0.26 µM | > 5 µM | 
C#Cc1cc(Nc2ncnc3cc(C#N)ccc23)ccc1F [compound 89, 89] | 550 nM | 870 nM | > 5 µM | 690 nM |  |  |  |  | 
C#Cc1cccc(Nc2ncnc3cc(C#N)ccc23)c1F [compound 88, 88] | 330 nM | 500 nM | > 5 µM | 1100 nM |  |  |  |  | 
C#Cc1cccc(Nc2ncnc3ccc(C#N)cc23)c1 [compound 68, 68] |  |  |  |  | 170 nM | 4700 nM | 7.9 µM | > 5 µM | 
C#Cc1cccc(Nc2ncnc3ccc(C)cc23)c1 [compound 55, 55] |  |  |  |  | 43 nM | 2600 nM | 4.3 µM | 3.6 µM | 
C#Cc1ccc(F)c(Nc2ncnc3cc(C#N)ccc23)c1 [compound 87, 4-((5-ethynyl-2-fluorophenyl)amino)quinazoline-7-carbonitrile] |  |  | > 5 µM |  |  |  |  |  | Ki (GAK [9]): 1200 nM; Ki (SLK [10]): 560 nM; Ki (STK10 [11]): 670 nM
C#Cc1cccc(Nc2ncnc3cc(OC)ccc23)c1 [compound 72, 72] |  |  |  |  | 8.8 nM | 460 nM | 0.67 µM | 1.2 µM | 
C#Cc1cccc(Nc2ncnc3ccc(Cl)cc23)c1 [compound 58, 58] |  |  |  |  | 30 nM | 2800 nM | 3.9 µM | > 5 µM | 
C#Cc1cccc(Nc2ncnc3cc4c(cc23)OCO4)c1 [compound 73, 73] |  |  |  |  | 19 nM | 1500 nM | 2.7 µM | 1.7 µM | 
C#Cc1cccc(Nc2ncnc3cc(C(F)(F)F)ccc23)c1 [compound 66, 66] |  |  |  |  | 88 nM | 1000 nM | 1.2 µM | > 5 µM | 
C#Cc1cccc(Nc2ncnc3ccccc23)c1 [compound 54, 54] |  |  |  |  | 170 nM | 10000 nM | 23 µM | 4.5 µM | 
C#Cc1cccc(Nc2ncnc3ccc(OC)cc23)c1 [compound 70, 70] |  |  |  |  | 24 nM | 2200 nM | 2.8 µM | 2.9 µM | 
C#Cc1cccc(Nc2ncnc3ccc(Br)cc23)c1 [compound 59, 59] |  |  |  |  | 28 nM | 2500 nM | 3.4 µM | > 5 µM | 
C#Cc1cccc(Nc2ncnc3cc(I)ccc23)c1 [compound 65, 65] |  |  |  |  | 20 nM | 150 nM | 0.18 µM | > 5 µM | 
C#Cc1cccc(Nc2ncnc3cc(F)c(F)cc23)c1 [compound 57, 57] |  |  |  |  | 85 nM | 2900 nM | 3.8 µM | > 5 µM | 
C#Cc1cccc(Nc2ncnc3ccc(F)cc23)c1 [compound 56, 56] |  |  |  |  | 70 nM | 5500 nM | 8.5 µM | 2 µM | 
COc1cc(Nc2ccnc3cc(I)ccc23)cc(OC)c1OC [compound 19, 19] |  |  |  |  |  |  |  |  | Ki (GAK [9]): 4.4 nM; Ki (SLK [10]): 1700 nM; IC50 [12]: 74 nM; Ki (STK10 [11]): 210 nM
C#Cc1cccc(Nc2ncnc3cc(F)ccc23)c1 [compound 62, 62] |  |  |  |  | 22 nM | 1200 nM | 1.2 µM | 4.1 µM | 
C#Cc1cccc(Nc2ncnc3ccc(I)cc23)c1 [compound 60, 60] |  |  |  |  | 44 nM | 3700 nM | 4.3 µM | > 5 µM | 
C#Cc1cccc(Nc2ncnc3ccc(C(F)(F)F)cc23)c1 [compound 61, 61] |  |  |  |  | 150 nM | 3400 nM | 3.2 µM | > 5 µM | 
COc1ccc2c(Nc3cc(OC)c(OC)c(OC)c3)ccnc2c1 [compound 22, 22] |  |  |  |  |  |  |  |  | Ki (GAK [9]; ATP site tracer displacement, 16-point dose response): 2.6 nM; Ki (SLK [10]): 13000 nM; IC50 ([12]; HEK293T cells, tracer displacement, n=[…] mean): 440 nM; Ki (STK10 [11]): 1300 nM

Further lines, with some results ahead:

Ki (GAK [1]) | Ki (STK10 [2]) | IC50 [3] | Ki (SLK [4]) | Ki (GAK [5]) | Ki (STK10 [6]) | Ki (SLK [7]) | IC50 [8] | Compound | other results
140 nM | 1000 nM | > 5 µM | 7100 nM |  |  |  |  | C#Cc1cc(Nc2ncnc3ccc(I)cc23)ccc1Cl [compound 98, 98] | 
 | 250 nM | 0.4 µM | 670 nM |  |  |  |  | C#Cc1cccc(Nc2ncnc3cc(OC)c(OC)cc23)c1F [compound 100, 100] | 
290 nM | 6700 nM | > 5 µM | 18000 nM |  |  |  |  | C#Cc1cccc(Nc2ncnc3ccc(I)cc23)c1F [compound 96, 96] | 
5.8 nM | 220 nM | 0.39 µM | 280 nM |  |  |  |  | C#Cc1ccc(F)c(Nc2ncnc3cc(OC)c(OC)cc23)c1 [compound 99, 99] | 
 | 110 nM | > 5 µM | 110 nM |  |  |  |  | C#Cc1cc(Nc2ncnc3cc(I)ccc23)ccc1F [compound 93, 93] | 
320 nM | 1600 nM | > 5 µM | 6300 nM |  |  |  |  | C#Cc1cc(Nc2ncnc3cc(C#N)ccc23)ccc1Cl [compound 90, 90] | 
93 nM | 270 nM | > 5 µM | 860 nM |  |  |  |  | C#Cc1cccc(Nc2ncnc3cc(I)ccc23)c1F [compound 92, 92] | 
2.4 nM | 47 nM | 0.14 µM | 72 nM |  |  |  |  | C#Cc1cc(Nc2ncnc3cc(OC)c(OC)cc23)ccc1F [compound 101, 101] | 
68 nM | 870 nM | > 5 µM | 1600 nM |  |  |  |  | C#Cc1cc(Nc2ncnc3ccc(I)cc23)ccc1F [compound 97, 97] | 
92 nM | 240 nM | > 5 µM | 930 nM |  |  |  |  | C#Cc1cc(Nc2ncnc3cc(I)ccc23)ccc1Cl [compound 94, 94] | 
3.4 nM | 75 nM | 0.39 µM | 330 nM |  |  |  |  | C#Cc1cc(Nc2ncnc3cc(OC)c(OC)cc23)ccc1Cl [compound 102, 102] | 
190 nM | 4900 nM | > 5 µM | 4500 nM |  |  |  |  | C#Cc1ccc(F)c(Nc2ncnc3ccc(I)cc23)c1 [compound 95, 95] | 
110 nM | 250 nM | > 5 µM | 390 nM |  |  |  |  | C#Cc1ccc(F)c(Nc2ncnc3cc(I)ccc23)c1 [compound 91, 91] | 
